Measured values from US20260345641A1, “COMPOSITIONS AND USES THEREOF” (Algorae Pharmaceuticals Ltd, priority 2023, published 2026).

What was measured:
[1] = test system: SH-SY5Y cells; test: Gene expression analysis by RNA sequencing in the presence of Aβ; format: cell-based, human
Text: (§1) The SH-S5Y5 neuroblastoma cell line was used for pre-clinical analysis. The SH-S5Y5 cell line is commonly used as a model for neurodegenerative disorders as the cells can be converted to various types of functional neurons by the addition of specific compounds (see, e.g., Xicoy et al., 2017, Molecular Neurodegeneration, 12: 10). In addition, the SH-S5Y5 cell line has been used widely in experimental neurological studies, including analysis of neuronal differentiation, metabolism, and function related to neurodegenerative processes, neurotoxicity and neuroprotection (see, e.g., Datki et al., 2003, Brain Research Bulletin, 62(3): 22-229; and Xie et al., 2010, Chinese Medical Journal, 123(8): 1086-1092).
Total RNA was isolated from cells using TRIzol in accordance with the manufacturer's instructions (Invitrogen, Carlsbad, CA, USA). RNA concentration and quality was assessed using a NanoDrop spectrophotometer. Only samples with a 260/280 ratio of ≥1.8 were used for further analysis.
Messenger RNA (mRNA) was purified from total RNA using poly-T oligo attached magnetic beads. After fragmentation, cDNA synthesis was performed in accordance with the manufacturer's instructions (Illumina, San Diego, CA, USA) to generate a directional and non-directional library. Libraries were checked with Qubit, real-time PCR was performed for quantification, and size distribution detection was performed using the Bioanalyzer. Quantified libraries were pooled and sequenced on an Illumina platform, according to the manufacturer's instructions.
Raw reads were filtered and mapped to human reference genome (GRCh38/hg38) using HISAT2. Differential gene expression analysis was performed using R Package DEG seq2. […] Manual annotation of genes previously associated with specific neurodegenerative disorders and dementias was performed following a text mining analysis.

[2] = test system: SH-S5Y5 neuroblastoma cells; test: Cell viability (MTT) in response to Aβ, in vitro model of Alzheimer's disease; format: cell-based; conditions: 20 μM Aβ, 24 h
Text: as §1
100 μL MTT reagent was added to each well (final concentration 0.5 mg/mL). Cells were then incubated at 37 °C, 5% CO2 for 4 hours. Solubilization buffer (100 μL) was then added to each well and further incubated at 37 °C, 5% CO2 for 24 hours. Absorbance was then measured by spectrophotometer at 550-600 nm and background corrected at 650 nm.
Amyloid-β (Aβ; 1 mg) was dissolved in 2 mL of 1,1,1,3,3,3-hexafluoro-2-propanol (HFIP). An additional 200 μL of HFIP was then added due to volatility. The Aβ was sealed with parafilm and vortexed for 30 seconds before aliquoting at 100 μL per 1.5 mL tube. HFIP was then evaporated in fume hood for 8 hours. Tubes were then sealed with lid and parafilm and stored at −80 °C. Prior to use, Aβ was reconstituted in DMSO to a final volume of 10% v/v for 10-15 min at RT and vortexed every 3-5 min. F-12 medium was then added to a final volume of 90% v/v. Aβ was then stored at 4 °C for 24 hours and vortexed before use.
Cells were seeded in 96-well microplates and incubated 37 °C, 5% CO2 for 24 hours.

[3] = oral administration; cited from earlier work

Row | Compound | MFSD8 expression [1] [FPKM] | MBP expression ([1]; 5 μM CBD, Aβ, control 0.089, P 0.012) [FPKM] | GBE1 expression ([1]; 5 μM CBD, Aβ, control 1.194, P 0.037) [FPKM] | ERCC4 expression ([1]; 5 μM CBD, Aβ, control 1.970, P 0.037) [FPKM] | MT-TW expression ([1]; 5 μM CBD, Aβ, control 2.846, P 0.023) [FPKM] | TRAPPC2 expression ([1]; 5 μM CBD, Aβ, control 3.872, P 0.013) [FPKM] | SLC20A2 expression ([1]; 5 μM CBD, Aβ, control 7.014, P 0.046) [FPKM] | IRF6 expression ([1]; 5 μM CBD, Aβ, control 7.365, P 0.012) [FPKM] | LAMP1 expression ([1]; 5 μM CBD, Aβ, control 34.350, P 0.018) [FPKM] | TAF15 expression ([1]; 5 μM CBD, Aβ, first TAF15 line, control 14.968, P 0.046) [FPKM] | TAF15 expression ([1]; 5 μM CBD, Aβ, second TAF15 line, control 15.869, P 0.046) [FPKM] | Cell viability as measured by MTT ([2]; CBD 2.5 μM) | Cell viability as measured by MTT ([2]; CBD 5 μM) | Cell viability as measured by MTT ([2]; CBD 10 μM) | bioavailability [3]
1 | C=C(C)[C@@H]1CCC(C)=C[C@H]1c1c(O)cc(CCCCC)cc1O [CBD, Cannabidiol] | 2.603 | 0.046 | 1.305 | 2.197 | 4.309 | 4.267 | 7.447 | 7.774 | 31.452 | 17.887 | 17.095 | 0.011 | 0.031 | 0.116 | –
2 | COc1ccc2c3c1O[C@H]1C[C@@H](O)C=C[C@@]31CCN(C)C2 [Galantamine] | – | – | – | – | – | – | – | – | – | – | – | – | – | – | high bioavailability
3 | CCN(C)C(=O)Oc1cccc([C@H](C)N(C)C)c1 [Rivastigmine] | – | – | – | – | – | – | – | – | – | – | – | – | – | – | high bioavailability
